From publication PMC9496321, “6-Furopyridine Hexamethylene Amiloride Is a Non-Selective P2X7 Receptor Antagonist” (Biomolecules, 2022)

Tests used:
cP2X7 = molecular target: T1, cP2X7 (Canis lupus familiaris, UniProt B0FLR1); assay: ATP-induced ethidium+ uptake in transfected HEK-cP2X7 cells; type: cell-based, canine
T1 sequence (B0FLR1 1-595): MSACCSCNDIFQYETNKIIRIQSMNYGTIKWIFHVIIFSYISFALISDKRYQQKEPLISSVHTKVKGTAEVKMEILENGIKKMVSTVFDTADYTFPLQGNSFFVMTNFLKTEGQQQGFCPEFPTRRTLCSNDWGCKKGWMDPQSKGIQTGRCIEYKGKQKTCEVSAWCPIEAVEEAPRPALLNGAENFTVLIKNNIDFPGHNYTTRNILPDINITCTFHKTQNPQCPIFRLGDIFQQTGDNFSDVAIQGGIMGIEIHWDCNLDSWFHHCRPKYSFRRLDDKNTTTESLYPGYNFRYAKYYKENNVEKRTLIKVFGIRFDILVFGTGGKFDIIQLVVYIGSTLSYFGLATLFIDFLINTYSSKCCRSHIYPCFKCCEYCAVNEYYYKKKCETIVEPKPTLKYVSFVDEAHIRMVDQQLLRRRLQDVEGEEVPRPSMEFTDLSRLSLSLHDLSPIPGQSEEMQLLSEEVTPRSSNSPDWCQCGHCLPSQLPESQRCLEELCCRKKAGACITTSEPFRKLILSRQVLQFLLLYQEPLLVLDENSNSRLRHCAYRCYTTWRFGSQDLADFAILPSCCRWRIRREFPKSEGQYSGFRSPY
Experimental: HEK293 cells were plated at 3.5 × 10^5 cells/well in 2 mL of complete DMEM/F12 medium and incubated (37 °C, 95% air/5% CO2, overnight). Cells were transfected with mP2X7-GFP (HEK-mP2X7), cP2X7-GFP (HEK-cP2X7) or hP2X4-EmGFP (HEK-hP2X4) plasmids, or mock transfected with an equivalent volume of sterile Milli-Q water (Merck Millipore, Burlington, NJ, USA), using Lipofectamine 3000 according to the manufacturer’s instructions. Cells were used for assays 48 h post-transfection. To determine transfection efficiency, cells were washed twice with D-PBS and data collected with an LSR Fortessa X-20 flow cytometer (BD Biosciences). The proportion of GFP positive cells was determined using FlowJo software v8.7.1 (BD Biosciences).
ATP-mediated uptake assays were conducted as described with either ethidium bromide or YO-PRO-1 iodide. Briefly, RPMI8226, HEK-hP2X7, HEK-mP2X7, HEK-cP2X7 or cryopreserved human peripheral blood mononuclear cells (PBMCs) were washed thrice with LDM (300× g, 5 min), resuspended in LDM and 1 × 10^6 cells were added to individual tubes. Cells were pre-incubated in the absence of compound (37 °C, 5 min) or in the presence of compound or vehicle (DMSO) (37 °C, 15 min) as indicated. […] An equal volume of ice-cold Mg^2+ stop solution was added and cells centrifuged (300× g, 5 min). Cells were washed twice in LDM (300× g, 5 min), resuspended and data were collected with an LSR Fortessa X-20 flow cytometer. MFI of ethidium^+ or YO-PRO-1^2+ was determined using FlowJo.

hP2X7 = molecular target: T2, hP2X7 (Homo sapiens, UniProt Q99572); assay: ATP-induced ethidium+ uptake in stably transfected HEK-hP2X7 cells (flow cytometry); type: cell-based; details: for maximum ATP response, ethidium+ uptake: increasing ATP; for EC50: EC50 of ATP
T2 construct: expressed in transfected cells; host or cells: HEK293 cells, stably transfected (HEK-hP2X7)
T2 sequence (Q99572 1-595): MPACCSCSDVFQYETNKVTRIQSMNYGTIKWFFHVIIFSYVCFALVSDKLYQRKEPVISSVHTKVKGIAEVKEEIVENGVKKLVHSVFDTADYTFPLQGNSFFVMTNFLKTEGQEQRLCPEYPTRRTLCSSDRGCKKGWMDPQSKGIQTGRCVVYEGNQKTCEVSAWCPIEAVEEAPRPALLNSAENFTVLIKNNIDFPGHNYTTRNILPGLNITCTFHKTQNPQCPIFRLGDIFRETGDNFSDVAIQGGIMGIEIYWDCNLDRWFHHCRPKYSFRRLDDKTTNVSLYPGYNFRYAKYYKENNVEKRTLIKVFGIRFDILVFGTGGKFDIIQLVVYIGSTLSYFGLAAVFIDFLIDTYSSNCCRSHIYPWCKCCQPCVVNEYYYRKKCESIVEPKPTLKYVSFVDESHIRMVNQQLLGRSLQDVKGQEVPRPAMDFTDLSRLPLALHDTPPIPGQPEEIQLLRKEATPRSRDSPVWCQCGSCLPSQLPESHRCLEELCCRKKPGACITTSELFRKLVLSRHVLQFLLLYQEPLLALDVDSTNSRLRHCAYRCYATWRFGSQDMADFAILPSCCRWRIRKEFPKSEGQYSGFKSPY

[1] = tested on: endogenous hP2Y receptors, including hP2Y1, hP2Y2 and hP2Y4; assay: Fura-2AM Ca2+ response assay in non-transfected HEK293 cells; type: cell-based, human
Experimental: Ca^2+ response assays were conducted as described. Briefly, HEK293, HEK-hP2X7 or HEK-hP2X4 cells were harvested and plated in black, clear-bottom 96-well plates at 5 × 10^4 cells/well overnight (37 °C, 95% air/5% CO2). Cells were washed with extracellular Ca^2+ solution (ECS) (145 mM NaCl, 2 mM CaCl2, 5 mM KCl, 13 mM glucose and 10 mM HEPES, pH 7.4) and incubated with Fura-2AM loading buffer (2.5 μM Fura-2AM and 0.2% pluronic acid in ECS) (37 °C, 95% air/5% CO2, 30 min, dark). Loading buffer was removed; cells were washed once with ECS and incubated in ECS (37 °C, 95% air/5% CO2, 20 min, dark) to allow Fura-2AM de-esterification. Where indicated, cells were pre-incubated with compound or vehicle (DMSO) (37 °C, 30 min, dark). Fura-2 fluorescence at 510 nm was measured every 5 s using a FlexStation 3 (Molecular Devices, San Jose, CA, USA). […] Data was acquired using SoftMax Pro version 7.0 (Molecular Devices). Relative changes in intracellular Ca^2+ were calculated using the ratio of Fura-2AM fluorescence at 510 nm following excitation at 340 nm and 380 nm (F340nm/380nm). […] Ca^2+ responses over time were plotted in Prism software v8.4.2 (GraphPad Software, La Jolla, CA, USA). To determine relative P2X-mediated Ca^2+ responses, the area under the curve from 100 to 180 s was calculated with GraphPad Prism. To determine P2Y-mediated Ca^2+ responses the area under the curve from 30 to 100 s was calculated. In both cases, ATP-induced responses were calculated by subtracting the corresponding basal response. These responses were normalised to the maximal ATP-induced response within their respective experiment.

| IC50 (cP2X7; read-out: IC50, cP2X7-mediated dye uptake) | inhibition at 30 µM (cP2X7; read-out: blockade of cP2X7-mediated dye uptake) | maximum ATP response, ethidium+ uptake (hP2X7; 0.3 μM 6-FPHMA) | maximum ATP response, ethidium+ uptake (hP2X7; 3 μM 6-FPHMA) | maximum ATP response, ethidium+ uptake (hP2X7; 30 μM 6-FPHMA) | blockade of hP2X7-mediated dye uptake (hP2X7; 100 μM compound, 450 μM ATP, HEK-hP2X7 cells) | mode of inhibition (hP2X7; ethidium+ uptake, HEK-hP2X7 cells) | IC50 (hP2X7; read-out: IC50, hP2X7-mediated dye uptake) | IC50 ([1]; 2.5 μM ATP, AUC 30-100 s, read-out: IC50, endogenous hP2Y-mediated Ca2+ responses) | Structure (SMILES) | inhibition of hP2Y-mediated Ca2+ responses ([1]; 30 μM compound, 2.5 μM ATP) | EC50 (cP2X7) | ATP concentration giving maximum response, ethidium+ uptake (cP2X7; HEK-cP2X7 cells) | EC50 (hP2X7; ethidium+ uptake, HEK-hP2X7 cells, no antagonist (Figure 2C)) | EC50 (hP2X7; ethidium+ uptake, in presence of 0.3 μM 6-FPHMA) | EC50 (hP2X7; ethidium+ uptake, in presence of 3 μM 6-FPHMA) | EC50 (hP2X7; ethidium+ uptake, in presence of 30 μM 6-FPHMA) | EC50 (hP2X7; ethidium+ uptake, pre-incubated with DMSO vehicle (Figure 2E)) | ATP concentration giving maximum Ca2+ response ([1]; HEK293 cells) | EC50 ([1]; read-out: EC50 of ATP, Ca2+ response, HEK293 cells, AUC 30-100 s) |
| --- | --- | --- | --- | --- | --- | --- | --- | --- | --- | --- | --- | --- | --- | --- | --- | --- | --- | --- | --- |
| 1.28 ± 0.47 µM | 100% | 90 ± 4% | 52 ± 3% | 13 ± 1% | 95% | non-competitive | 1.63 ± 0.42 µM | 0.33 ± 0.13 µM | N=C(N)NC(=O)c1nc(-c2cc3cnccc3o2)c(N2CCCCCC2)nc1N [6-FPHMA, 6-furopyridine-substituted 5-(N,N-hexamethylene) amiloride] | 97% |  |  |  |  |  |  |  |  |  |
|  |  |  |  |  |  |  |  |  | Nc1ncnc2c1ncn2[C@@H]1O[C@H](COP(=O)(O)OP(=O)(O)OP(=O)(O)O)[C@@H](O)[C@H]1O [ATP, adenosine 5′-triphosphate] |  | 424 ± 67 µM | 2 mM | 466 ± 17 µM | 464 ± 52 µM | 517 ± 49 µM | 557 ± 47 µM | 419 ± 24 µM | 300 µM | 2.5 ± 1.01 µM |
